# Test results: patent US20250289787A1, “HERBICIDAL 2-OXO-NICOTINIC ACID DERIVATIVES” (SYNGENTA CROP PROTECTION AG, priority 2022, published 2025)
# How the values were obtained:
# Assay type in all cases: in vivo
# [1] = tested on: Echinochloa crus-galli (ECHCG); test: Pre-emergence test, herbicidal damage; design: key: 5=81-100%; 4=61-80%; 3=41-60%; 2=21-40%; 1=1-20%; 0=no damage to the plant; -=not tested; settings: 1000 g/ha unless otherwise stated, evaluated after 13 days, five-point scale
# Zea mays (ZEAMX) [2] = test: Pre-emergence test, herbicidal damage; design: key: 5=81-100%; 4=61-80%; 3=41-60%; 2=21-40%; 1=1-20%; 0=no damage to the plant; -=not tested; settings: 1000 g/ha unless otherwise stated, evaluated after 13 days, five-point scale
# [3] = tested on: Echinochloa crus-galli (ECHCG); test: Post-emergence test, herbicidal damage; design: key: 5=81-100%; 4=61-80%; 3=41-60%; 2=21-40%; 1=1-20%; 0=no damage to the plant; -=not tested; settings: sprayed after 8 days cultivation, 1000 g/ha unless otherwise stated, evaluated after 13 days, five-point scale
# How it was run: (§1)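 Seeds are sown in standard soil under controlled glasshouse conditions (24 °C day, 16 °C night, 14 h light, 65% humidity) and sprayed with compound at 1000 g/ha in aqueous acetone containing 0.5% Tween 20. Thirteen days later, percentage damage is rated on a 0–5 scale.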
# Zea mays (ZEAMX) [4] = test: Post-emergence test, herbicidal damage; design: key: 5=81-100%; 4=61-80%; 3=41-60%; 2=21-40%; 1=1-20%; 0=no damage to the plant; -=not tested; settings: sprayed after 8 days cultivation, 1000 g/ha unless otherwise stated, evaluated after 13 days, five-point scale
# How it was run: as §1
# [5] = tested on: Amaranthus retoflexus (AMARE); test: Post-emergence test, herbicidal damage; design: key: 5=81-100%; 4=61-80%; 3=41-60%; 2=21-40%; 1=1-20%; 0=no damage to the plant; -=not tested; settings: sprayed after 8 days cultivation, 1000 g/ha unless otherwise stated, evaluated after 13 days, five-point scale
# How it was run: as §1
# Setaria faberi (SETFA) [6] = test: Post-emergence test, herbicidal damage; design: key: 5=81-100%; 4=61-80%; 3=41-60%; 2=21-40%; 1=1-20%; 0=no damage to the plant; -=not tested; settings: sprayed after 8 days cultivation, 1000 g/ha unless otherwise stated, evaluated after 13 days, five-point scale
# How it was run: as §1
# [7] = tested on: Amaranthus palmeri (AMAPA); test: Post-emergence test, herbicidal damage; design: key: 5=81-100%; 4=61-80%; 3=41-60%; 2=21-40%; 1=1-20%; 0=no damage to the plant; -=not tested; settings: sprayed after 8 days cultivation, 1000 g/ha unless otherwise stated, evaluated after 13 days, five-point scale
# How it was run: as §1
# [8] = tested on: Ipomoea hederacea (IPOHE); test: Post-emergence test, herbicidal damage; design: key: 5=81-100%; 4=61-80%; 3=41-60%; 2=21-40%; 1=1-20%; 0=no damage to the plant; -=not tested; settings: sprayed after 8 days cultivation, 1000 g/ha unless otherwise stated, evaluated after 13 days, five-point scale
# How it was run: as §1
# [9] = tested on: Amaranthus retoflexus (AMARE); test: Pre-emergence test, herbicidal damage; settings: 1000 g/ha unless otherwise stated, evaluated after 13 days, five-point scale
# [10] = tested on: Amaranthus palmeri (AMAPA); test: Pre-emergence test, herbicidal damage; settings: 1000 g/ha unless otherwise stated, evaluated after 13 days, five-point scale
# Setaria faberi (SETFA) [11] = test: Pre-emergence test, herbicidal damage; design: key: 5=81-100%; 4=61-80%; 3=41-60%; 2=21-40%; 1=1-20%; 0=no damage to the plant; -=not tested; settings: 1000 g/ha unless otherwise stated, evaluated after 13 days, five-point scale
# [12] = tested on: Ipomoea hederacea (IPOHE); test: Pre-emergence test, herbicidal damage; design: key: 5=81-100%; 4=61-80%; 3=41-60%; 2=21-40%; 1=1-20%; 0=no damage to the plant; -=not tested; settings: 1000 g/ha unless otherwise stated, evaluated after 13 days, five-point scale
SMILES,"percentage damage caused to the plant, ECHCG [1]","percentage damage caused to the plant, ZEAMX (Zea mays (ZEAMX) [2])","percentage damage caused to the plant, ECHCG [3]","percentage damage caused to the plant, ZEAMX (Zea mays (ZEAMX) [4])","percentage damage caused to the plant, AMARE [5]","percentage damage caused to the plant, SEFTA (Setaria faberi (SETFA) [6])","percentage damage caused to the plant, AMAPA [7]","percentage damage caused to the plant, IPOHE [8]","percentage damage caused to the plant, AMARE [9]","percentage damage caused to the plant, AMAPA [10]","percentage damage caused to the plant, SEFTA (Setaria faberi (SETFA) [11])","percentage damage caused to the plant, IPOHE [12]"
"Cc1c(Cl)c(-c2ccc(Cl)c(Cl)c2)c(C(=O)O)c(=O)n1Cc1ccc(C(F)(F)F)cc1F [Compound 28, 5-chloro-4-(3,4-dichlorophenyl)-1-[[2-fluoro-4-(trifluoromethyl)phenyl]methyl]-6-methyl-2-oxo-pyridine-3-carboxylic acid]",1 (1=1-20%),1 (1=1-20%),0,1 (1=1-20%),3 (3=41-60%),1 (1=1-20%),4 (4=61-80%),1 (1=1-20%),3 (3=41-60%),4 (4=61-80%),0,1 (1=1-20%)
"Cc1cc(-c2ccc(Cl)c(Cl)c2)c(C(=O)O)c(=O)n1Cc1ccc(F)cc1F [Compound 31, 4-(3,4-dichlorophenyl)-1-[(2,4-difluorophenyl)methyl]-6-methyl-2-oxo-pyridine-3-carboxylic acid]",0,0,1 (1=1-20%),0,1 (1=1-20%),0,1 (1=1-20%),0,1 (1=1-20%),1 (1=1-20%),1 (1=1-20%),0
"C=Cc1c(-c2ccc(Cl)c(Cl)c2)c(C(=O)O)c(=O)n(-c2ccc(Cl)cc2F)c1C [Compound 32, 1-(4-chloro-2-fluoro-phenyl)-4-(3,4-dichlorophenyl)-6-methyl-2-oxo-5-vinyl-pyridine-3-carboxylic acid]",2 (2=21-40%),1 (1=1-20%),1 (1=1-20%),1 (1=1-20%),3 (3=41-60%),1 (1=1-20%),4 (4=61-80%),2 (2=21-40%),3 (3=41-60%),4 (4=61-80%),1 (1=1-20%),1 (1=1-20%)
"Cc1c(Br)c(-c2ccc(Cl)c(Cl)c2)c(C(=O)O)c(=O)n1Cc1ccc(C#N)cc1F [Compound 33, 5-bromo-1-[(4-cyano-2-fluoro-phenyl)methyl]-4-(3,4-dichlorophenyl)-6-methyl-2-oxo-pyridine-3-carboxylic acid]",1 (1=1-20%),1 (1=1-20%),1 (1=1-20%),1 (1=1-20%),3 (3=41-60%),1 (1=1-20%),3 (3=41-60%),1 (1=1-20%),3 (3=41-60%),3 (3=41-60%),1 (1=1-20%),1 (1=1-20%)
"Cc1c(Cl)c(-c2ccc(Cl)c(Cl)c2)c(C(=O)O)c(=O)n1Cc1ccc(F)cc1F [Compound 34, 5-chloro-4-(3,4-dichlorophenyl)-1-[(2,4-difluorophenyl)methyl]-6-methyl-2-oxo-pyridine-3-carboxylic acid]",1 (1=1-20%),0,1 (1=1-20%),0,3 (3=41-60%),0,4 (4=61-80%),1 (1=1-20%),3 (3=41-60%),4 (4=61-80%),1 (1=1-20%),0
"CCc1c(-c2ccc(Cl)c(Cl)c2)c(C(=O)O)c(=O)n(-c2ccc(Cl)cc2F)c1C [Compound 35, 1-(4-chloro-2-fluoro-phenyl)-4-(3,4-dichlorophenyl)-5-ethyl-6-methyl-2-oxo-pyridine-3-carboxylic acid]",1 (1=1-20%),0,0,0,4 (4=61-80%),0,4 (4=61-80%),1 (1=1-20%),4 (4=61-80%),4 (4=61-80%),0,0
"COCc1c(-c2ccc(Cl)c(Cl)c2)c(C(=O)O)c(=O)n(-c2ccc(F)cc2F)c1C [Compound 36, 4-(3,4-dichlorophenyl)-1-(2,4-difluorophenyl)-5-(methoxymethyl)-6-methyl-2-oxo-pyridine-3-carboxylic acid]",1 (1=1-20%),0,0,0,2 (2=21-40%),1 (1=1-20%),2 (2=21-40%),1 (1=1-20%),2 (2=21-40%),2 (2=21-40%),0,1 (1=1-20%)
"Cc1c(C2CC2)c(-c2ccc(Cl)c(Cl)c2)c(C(=O)O)c(=O)n1-c1ccc(F)cc1F [Compound 37, 5-cyclopropyl-4-(3,4-dichlorophenyl)-1-(2,4-difluorophenyl)-6-methyl-2-oxo-pyridine-3-carboxylic acid]",2 (2=21-40%),1 (1=1-20%),1 (1=1-20%),1 (1=1-20%),3 (3=41-60%),1 (1=1-20%),4 (4=61-80%),2 (2=21-40%),3 (3=41-60%),4 (4=61-80%),1 (1=1-20%),1 (1=1-20%)
"C=Cc1c(-c2ccc(Cl)c(Cl)c2)c(C(=O)O)c(=O)n(-c2ccc(F)cc2F)c1C [Compound 38, 4-(3,4-dichlorophenyl)-1-(2,4-difluorophenyl)-6-methyl-2-oxo-5-vinyl-pyridine-3-carboxylic acid]",2 (2=21-40%),0,0,0,1 (1=1-20%),0,1 (1=1-20%),2 (2=21-40%),1 (1=1-20%),1 (1=1-20%),0,0
